From PubChem BioAssay (NCI)
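How tested: cells in 96-well plates exposed to compound for 48 hours at five concentrations. The concentration for 50% growth inhibition is given as GI50. At the TGI there is no net growth.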

Tests used:
Assay in all cases: DTP human tumour cell line panel, 48 h
SK-MEL-2 melanoma = system: SK-MEL-2 melanoma
TK-10 renal = system: TK-10 renal
MDA-MB-435 = system: MDA-MB-435
K-562 leukemia = system: K-562 leukemia
MDA-MB-231 breast = system: MDA-MB-231 breast
CAKI-1 renal = system: CAKI-1 renal
NCI/ADR-RES ovarian = system: NCI/ADR-RES ovarian
SW-620 colon = system: SW-620 colon
HL-60(TB) leukemia = system: HL-60(TB) leukemia
HOP-92 NSCLC = system: HOP-92 NSCLC
PC-3 prostate = system: PC-3 prostate
HCT-116 colon = system: HCT-116 colon
OVCAR-8 ovarian = system: OVCAR-8 ovarian
MCF7 breast = system: MCF7 breast
SF-539 CNS = system: SF-539 CNS
DU-145 prostate = system: DU-145 prostate
SN12C renal = system: SN12C renal
SF-268 CNS = system: SF-268 CNS
CCRF-CEM leukemia = system: CCRF-CEM leukemia
OVCAR-4 ovarian = system: OVCAR-4 ovarian
SNB-75 CNS = system: SNB-75 CNS
EKVX NSCLC = system: EKVX NSCLC
MOLT-4 leukemia = system: MOLT-4 leukemia
HS 578T breast = system: HS 578T breast
RPMI-8226 leukemia = system: RPMI-8226 leukemia
UACC-257 melanoma = system: UACC-257 melanoma
MALME-3M melanoma = system: MALME-3M melanoma
SK-OV-3 ovarian = system: SK-OV-3 ovarian
SR leukemia = system: SR leukemia
M14 melanoma = system: M14 melanoma
IGROV1 ovarian = system: IGROV1 ovarian
HT29 colon = system: HT29 colon
SF-295 CNS = system: SF-295 CNS
ACHN renal = system: ACHN renal
A549 NSCLC = system: A549 NSCLC
LOX IMVI melanoma = system: LOX IMVI melanoma
BT-549 breast = system: BT-549 breast
SNB-19 CNS = system: SNB-19 CNS
NCI-H226 lung = system: NCI-H226 lung
T-47D breast = system: T-47D breast
KM12 colon = system: KM12 colon
UO-31 renal = system: UO-31 renal
A498 renal = system: A498 renal
COLO 205 colon = system: COLO 205 colon
HCT-15 colon = system: HCT-15 colon
786-0 renal = system: 786-0 renal
OVCAR-3 ovarian = system: OVCAR-3 ovarian
NCI-H460 lung = system: NCI-H460 lung
RXF 393 renal = system: RXF 393 renal
NCI-H23 lung = system: NCI-H23 lung
U251 CNS = system: U251 CNS
UACC-62 melanoma = system: UACC-62 melanoma
OVCAR-5 ovarian = system: OVCAR-5 ovarian
HOP-62 NSCLC = system: HOP-62 NSCLC
SK-MEL-5 melanoma = system: SK-MEL-5 melanoma

COc1cc(/C=C2\CCCC3=C2NC(N)=NC3c2cc(OC)c(OC)c(OC)c2)cc(OC)c1OC (stereo unspecified)
GI50 (SK-MEL-2 melanoma): 2.08 µM | TGI (SK-MEL-2 melanoma): 4.83 µM | GI50 (TK-10 renal): 3.24 µM | TGI (TK-10 renal): 7.23 µM | GI50 (MDA-MB-435): 0.422 µM | TGI (MDA-MB-435): > 100 µM | GI50 (K-562 leukemia): 2.15 µM | TGI (K-562 leukemia): > 100 µM | GI50 (MDA-MB-231 breast): 3.87 µM | TGI (MDA-MB-231 breast): > 100 µM | GI50 (CAKI-1 renal): 1.44 µM | TGI (CAKI-1 renal): 7.69 µM | GI50 (NCI/ADR-RES ovarian): 0.29 µM | TGI (NCI/ADR-RES ovarian): > 100 µM | GI50 (SW-620 colon): 1.08 µM | TGI (SW-620 colon): 3.51 µM | GI50 (HL-60(TB) leukemia): 2.6 µM | TGI (HL-60(TB) leukemia): > 100 µM | GI50 (HOP-92 NSCLC): 1.58 µM | TGI (HOP-92 NSCLC): 5.74 µM | GI50 (PC-3 prostate): 1.93 µM | TGI (PC-3 prostate): > 100 µM | GI50 (HCT-116 colon): 0.551 µM | TGI (HCT-116 colon): 1.97 µM | GI50 (OVCAR-8 ovarian): 0.298 µM | TGI (OVCAR-8 ovarian): 12.1 µM | GI50 (MCF7 breast): 1.49 µM | TGI (MCF7 breast): > 100 µM | GI50 (SF-539 CNS): 3.27 µM | TGI (SF-539 CNS): > 100 µM | GI50 (DU-145 prostate): 3.36 µM | TGI (DU-145 prostate): > 100 µM | GI50 (SN12C renal): 1.62 µM | TGI (SN12C renal): > 100 µM | GI50 (SF-268 CNS): 2.42 µM | TGI (SF-268 CNS): > 100 µM | GI50 (CCRF-CEM leukemia): 0.419 µM | TGI (CCRF-CEM leukemia): 7.31 µM | GI50 (OVCAR-4 ovarian): 1.7 µM | TGI (OVCAR-4 ovarian): > 100 µM | GI50 (SNB-75 CNS): 8.02 µM | TGI (SNB-75 CNS): > 100 µM | GI50 (EKVX NSCLC): 3.12 µM | TGI (EKVX NSCLC): > 100 µM | GI50 (MOLT-4 leukemia): 1.69 µM | TGI (MOLT-4 leukemia): 5.83 µM | GI50 (HS 578T breast): 0.554 µM | TGI (HS 578T breast): 7.62 µM | GI50 (RPMI-8226 leukemia): 0.291 µM | TGI (RPMI-8226 leukemia): 1.79 µM | GI50 (UACC-257 melanoma): 1.25 µM | TGI (UACC-257 melanoma): 4.35 µM | GI50 (MALME-3M melanoma): 1.92 µM | TGI (MALME-3M melanoma): 5.47 µM | GI50 (SK-OV-3 ovarian): 3.43 µM | TGI (SK-OV-3 ovarian): > 100 µM | GI50 (SR leukemia): 0.51 µM | TGI (SR leukemia): 3.74 µM | GI50 (M14 melanoma): 0.633 µM | TGI (M14 melanoma): 2.91 µM | GI50 (IGROV1 ovarian): 3.35 µM | TGI (IGROV1 ovarian): > 100 µM

O=c1cc/c(=N\Nc2ccccc2)c(=O)/c1=N/Nc1ccccc1
GI50 (SK-MEL-2 melanoma): > 50 µM | TGI (SK-MEL-2 melanoma): > 50 µM | GI50 (HT29 colon): > 50 µM | TGI (HT29 colon): > 50 µM | GI50 (SF-295 CNS): > 50 µM | TGI (SF-295 CNS): > 50 µM | GI50 (TK-10 renal): > 50 µM | TGI (TK-10 renal): > 50 µM | GI50 (MDA-MB-435): > 50 µM | TGI (MDA-MB-435): > 50 µM | GI50 (K-562 leukemia): > 50 µM | TGI (K-562 leukemia): > 50 µM | GI50 (MDA-MB-231 breast): > 50 µM | TGI (MDA-MB-231 breast): > 50 µM | GI50 (ACHN renal): > 50 µM | TGI (ACHN renal): > 50 µM | GI50 (CAKI-1 renal): > 50 µM | TGI (CAKI-1 renal): > 50 µM | GI50 (A549 NSCLC): > 50 µM | TGI (A549 NSCLC): > 50 µM | GI50 (NCI/ADR-RES ovarian): > 50 µM | TGI (NCI/ADR-RES ovarian): > 50 µM | GI50 (SW-620 colon): > 50 µM | TGI (SW-620 colon): > 50 µM | GI50 (HL-60(TB) leukemia): > 50 µM | TGI (HL-60(TB) leukemia): > 50 µM | GI50 (LOX IMVI melanoma): > 50 µM | TGI (LOX IMVI melanoma): > 50 µM | GI50 (HOP-92 NSCLC): > 50 µM | TGI (HOP-92 NSCLC): > 50 µM | GI50 (BT-549 breast): > 50 µM | TGI (BT-549 breast): > 50 µM | GI50 (PC-3 prostate): > 50 µM | TGI (PC-3 prostate): > 50 µM | GI50 (SNB-19 CNS): > 50 µM | TGI (SNB-19 CNS): > 50 µM | GI50 (NCI-H226 lung): > 50 µM | TGI (NCI-H226 lung): > 50 µM | GI50 (T-47D breast): > 50 µM | TGI (T-47D breast): > 50 µM | GI50 (HCT-116 colon): > 50 µM | TGI (HCT-116 colon): > 50 µM | GI50 (KM12 colon): > 50 µM | TGI (KM12 colon): > 50 µM | GI50 (UO-31 renal): > 50 µM | TGI (UO-31 renal): > 50 µM | GI50 (A498 renal): > 50 µM | TGI (A498 renal): > 50 µM | GI50 (OVCAR-8 ovarian): > 50 µM | TGI (OVCAR-8 ovarian): > 50 µM | GI50 (SF-539 CNS): > 50 µM | TGI (SF-539 CNS): > 50 µM | GI50 (DU-145 prostate): > 50 µM | TGI (DU-145 prostate): > 50 µM | GI50 (COLO 205 colon): > 50 µM | TGI (COLO 205 colon): > 50 µM | GI50 (SN12C renal): > 50 µM | TGI (SN12C renal): > 50 µM | GI50 (SF-268 CNS): > 50 µM | TGI (SF-268 CNS): > 50 µM | GI50 (HCT-15 colon): > 50 µM | TGI (HCT-15 colon): > 50 µM | GI50 (CCRF-CEM leukemia): > 50 µM | TGI (CCRF-CEM leukemia): > 50 µM | GI50 (786-0 renal): > 50 µM | TGI (786-0 renal): > 50 µM | GI50 (OVCAR-3 ovarian): > 50 µM | TGI (OVCAR-3 ovarian): > 50 µM | GI50 (OVCAR-4 ovarian): > 50 µM | TGI (OVCAR-4 ovarian): > 50 µM | GI50 (NCI-H460 lung): > 50 µM | TGI (NCI-H460 lung): > 50 µM | GI50 (SNB-75 CNS): > 50 µM | TGI (SNB-75 CNS): > 50 µM | GI50 (RXF 393 renal): > 50 µM | TGI (RXF 393 renal): > 50 µM | GI50 (EKVX NSCLC): > 50 µM | TGI (EKVX NSCLC): > 50 µM | GI50 (NCI-H23 lung): > 50 µM | TGI (NCI-H23 lung): > 50 µM | GI50 (U251 CNS): > 50 µM | TGI (U251 CNS): > 50 µM | GI50 (UACC-62 melanoma): > 50 µM | TGI (UACC-62 melanoma): > 50 µM | GI50 (MOLT-4 leukemia): > 50 µM | TGI (MOLT-4 leukemia): > 50 µM | GI50 (OVCAR-5 ovarian): > 50 µM | TGI (OVCAR-5 ovarian): > 50 µM | GI50 (UACC-257 melanoma): > 50 µM | TGI (UACC-257 melanoma): > 50 µM | GI50 (MALME-3M melanoma): > 50 µM | TGI (MALME-3M melanoma): > 50 µM | GI50 (SK-OV-3 ovarian): > 50 µM | TGI (SK-OV-3 ovarian): > 50 µM | GI50 (HOP-62 NSCLC): > 50 µM | TGI (HOP-62 NSCLC): > 50 µM | GI50 (SR leukemia): > 50 µM | TGI (SR leukemia): > 50 µM | GI50 (M14 melanoma): > 50 µM | TGI (M14 melanoma): > 50 µM | GI50 (SK-MEL-5 melanoma): > 50 µM | TGI (SK-MEL-5 melanoma): > 50 µM | GI50 (IGROV1 ovarian): > 50 µM | TGI (IGROV1 ovarian): > 50 µM
